For data set [1] the following is noted: administered in the above in vivo tests (hamsters).
The nature of data set [2]: Hygroscopicity of the anhydrous crystalline form. It is filed as physicochemical.
Data set [3] can be described thus: Epimeric stability in the solid state. It is filed as physicochemical. As to conditions: anhydrous form.
Data set [4] concerns the target T1, human neutrophil elastase (HNE) (Homo sapiens, UniProt P08246).
T1 sequence (P08246 30-267): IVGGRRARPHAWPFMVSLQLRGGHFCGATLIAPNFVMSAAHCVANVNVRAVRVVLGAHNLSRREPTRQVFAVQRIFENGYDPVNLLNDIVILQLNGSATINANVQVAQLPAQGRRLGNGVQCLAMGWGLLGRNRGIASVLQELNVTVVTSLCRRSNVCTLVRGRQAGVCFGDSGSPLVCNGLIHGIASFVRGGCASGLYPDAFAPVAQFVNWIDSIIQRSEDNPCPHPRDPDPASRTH
Put plainly: Acute Hemorrhagic Assay: HNE-induced lung hemorrhage. It is filed as in vivo, Syrian hamsters. As to conditions: hamster, hamsters, 50 μg/animal HNE intratracheally, read-out: ED50, inhibition of HNE-induced hemorrhage.
Protocol: This assay relies on monitoring only the amount of hemorrhage in the lung following intratracheal administration of human neutrophil elastase (HNE). Hemorrhage is quantified by disrupting erythrocytes recovered in lung lavage fluid and comparing that to dilutions of whole hamster blood. […] Male Syrian hamsters (fasted for 16-18 hours prior to use) are lightly anaesthetised with Brevital sodium (30 mg/kg i.p.). […] Four hours after enzyme administration, the animals are killed with an overdose of pentobarbital sodium, the thorax opened and the lungs and heart removed and the lungs cleared of extraneous material. The excised lungs are lavaged with three changes of 2 ml PBS via a tracheal cannula. The recovered lavages are pooled, the volumes (about 5 mL) are recorded and the lavages stored at 4° C. until assayed. […] The optical densities (OD) of the disrupted lavages and blood samples are determined at 540 nm. The (μL blood equivalents)/(mL lavage) are determined by comparing the OD of the test samples with the OD of the standard curve prepared from whole hamster blood. The total μL equivalents of blood recovered is determined by multiplying recovered lavage volume by the (μL blood equivalents)/(mL lavage) for each sample.

Where two headings read alike, the source gives them in different places.

In the case of `COc1ccc(C(=O)N[C@H](C(=O)N2CCC[C@H]2C(=O)N[C@H](C(=O)C(F)(F)F)C(C)C)C(C)C)cc1` [compound of the invention, (S)-1-[(S)-2-(4-methoxybenzamido)-3-methylbutyryl]-N-[(S)-2-methyl-1-(trifluoroacetyl)propyl]pyrrolidine-2-carboxamide], the overt toxicity entry in data set [1] was “No overt toxicity”. In data set [2], the hygroscopicity result is on record as “non-hygroscopic”. The epimeric stability entry in data set [3] is on record as “good epimeric stability”. Also, the median effective dose (ED50) in data set [4] (i.v. administration) is 0.59 mg/kg; in data set [4] (oral dosing), 5.2 mg/kg.

Usually ED50 stands for the midpoint of the dose-response relation.

The values are drawn from patent US5739157A, “Diastereomeric pure trifluoromethyl ketone peptide derivatives as inhibitors of human leukocyte elastase” (Zeneca Limited, priority 1994, dated 1998).
